Experimental data: ChEMBL document CHEMBL2429780, “Synthesis, antimicrobial and cytotoxic activity of 2-azetidinone derivatives of pyridyl benzimidazoles” (Med Chem Res, 2013)
Values after ≈ are worked out from the molar mass of the structure shown. Active and inactive are the calls of the source. The calls are words filed in the database; no cut-off is given here.

What was measured:
[1] = system: Streptococcus pyogenes; test: Antibacterial activity against Streptococcus pyogenes MTCC 442 assessed as growth inhibition at 12.5 to 1000 ug/mL after 24 hrs by broth dilution assay; assay type: functional, organism-based
[2] = system: Candida albicans; test: Antifungal activity against Candida albicans assessed as growth inhibition at 12.5 to 1000 ug/mL after 48 hrs by broth dilution assay; assay type: functional, organism-based
[3] = system: Pseudomonas aeruginosa; test: Antibacterial activity against Pseudomonas aeruginosa MTCC 1688 assessed as growth inhibition at 12.5 to 1000 ug/mL after 24 hrs by broth dilution assay; assay type: functional, organism-based
[4] = system: Aspergillus clavatus; test: Antifungal activity against Aspergillus clavatus assessed as growth inhibition at 12.5 to 1000 ug/mL after 48 hrs by broth dilution assay; assay type: functional, organism-based
[5] = system: Staphylococcus aureus; test: Antibacterial activity against Staphylococcus aureus MTCC 96 assessed as growth inhibition at 12.5 to 1000 ug/mL after 24 hrs by broth dilution assay; assay type: functional, organism-based
[6] = system: Escherichia coli; test: Antibacterial activity against Escherichia coli MTCC 443 assessed as growth inhibition at 12.5 to 1000 ug/mL after 24 hrs by broth dilution assay; assay type: functional, organism-based
[7] = system: Aspergillus niger; test: Antifungal activity against Aspergillus niger assessed as growth inhibition at 12.5 to 1000 ug/mL after 48 hrs by broth dilution assay; assay type: functional, organism-based
[8] = system: Aspergillus clavatus; test: Antifungal activity against Aspergillus clavatus assessed as growth inhibition after 48 hrs by broth dilution assay; assay type: functional
[9] = system: Streptococcus pyogenes; test: Antibacterial activity against Streptococcus pyogenes MTCC 442 assessed as growth inhibition after 24 hrs by broth dilution assay; assay type: functional; settings: MTCC 442, 24 h
[10] = system: Staphylococcus aureus; test: Antibacterial activity against Staphylococcus aureus MTCC 96 assessed as growth inhibition after 24 hrs by broth dilution assay; assay type: functional; settings: MTCC 96, 24 h
[11] = system: Pseudomonas aeruginosa; test: Antibacterial activity against Pseudomonas aeruginosa MTCC 1688 assessed as growth inhibition after 24 hrs by broth dilution assay; assay type: functional; settings: MTCC 1688, 24 h
[12] = system: Candida albicans; test: Antifungal activity against Candida albicans assessed as growth inhibition after 48 hrs by broth dilution assay; assay type: functional
[13] = system: HeLa; test: Cytotoxicity against human HeLa cells assessed as growth inhibition after 24 to 72 hrs by MTT assay; assay type: cell-based
[14] = system: Escherichia coli; test: Antibacterial activity against Escherichia coli MTCC 443 assessed as growth inhibition after 24 hrs by broth dilution assay; assay type: functional; settings: MTCC 443, 24 h
[15] = system: Aspergillus niger; test: Antifungal activity against Aspergillus niger assessed as growth inhibition after 48 hrs by broth dilution assay; assay type: functional

SMILES | growth inhibition (GI) [1] | growth inhibition (GI) [2] | growth inhibition (GI) [3] | growth inhibition (GI) [4] | growth inhibition (GI) [5] | growth inhibition (GI) [6] | growth inhibition (GI) [7] | MIC [8] | MIC [9] | MIC [10] | MIC [11] | MIC [12] | IC50 [13] | MIC [14] | MIC [15]
COc1cccc(-c2cc(-c3nc4ccccc4[nH]3)nc(N)c2C#N)c1 | inactive | inactive | inactive | inactive | inactive | inactive | inactive |  |  |  |  |  |  |  | 
N#Cc1c(-c2ccccc2Cl)cc(-c2nc3ccccc3[nH]2)nc1N | inactive | inactive | inactive | inactive | inactive | inactive | inactive |  |  |  |  |  |  |  | 
Cc1ccccc1-c1cc(-c2nc3ccccc3[nH]2)nc(N)c1C#N | inactive | inactive | inactive | inactive | inactive | inactive | inactive |  |  |  |  |  |  |  | 
N#Cc1c(-c2ccccc2)cc(-c2nc3ccccc3[nH]2)nc1N | inactive | inactive | inactive | inactive | inactive | inactive | inactive |  |  |  |  |  |  |  | 
N#Cc1c(-c2ccc(O)cc2)cc(-c2nc3ccccc3[nH]2)nc1N | inactive | inactive | inactive | inactive | inactive | inactive | inactive |  |  |  |  |  |  |  | 
COc1ccc(-c2cc(-c3nc4ccccc4[nH]3)nc(N3C(=O)C(Cl)C3c3ccccc3)c2C#N)cc1 (stereo not given) |  |  |  |  |  |  |  | 500 µg/mL (≈ 988 µM) | 250 µg/mL (≈ 494 µM) | 500 µg/mL (≈ 988 µM) | 250 µg/mL (≈ 494 µM) | 1000 µg/mL (≈ 1980 µM) | 58.2 µM | 100 µg/mL (≈ 198 µM) | 500 µg/mL (≈ 988 µM)
N#Cc1c(-c2cccc(Cl)c2)cc(-c2nc3ccccc3[nH]2)nc1/N=C/c1ccccc1 |  | inactive |  | inactive |  |  | inactive |  | 1000 µg/mL (≈ 2300 µM) |  | 1000 µg/mL (≈ 2300 µM) |  |  |  | 
Cc1ccccc1-c1cc(-c2nc3ccccc3[nH]2)nc(N2C(=O)C(Cl)C2c2ccccc2)c1C#N (stereo not given) |  |  |  |  |  |  |  | 500 µg/mL (≈ 1020 µM) | 500 µg/mL (≈ 1020 µM) | 500 µg/mL (≈ 1020 µM) | 1000 µg/mL (≈ 2040 µM) | 500 µg/mL (≈ 1020 µM) | 66 µM | 250 µg/mL (≈ 510 µM) | 1000 µg/mL (≈ 2040 µM)
N#Cc1c(-c2ccc(Cl)cc2O)cc(-c2nc3ccccc3[nH]2)nc1N | inactive | inactive | inactive | inactive | inactive | inactive | inactive |  |  |  |  |  |  |  | 
Cc1cccc(-c2cc(-c3nc4ccccc4[nH]3)nc(N3C(=O)C(Cl)C3c3ccccc3)c2C#N)c1 (stereo not given) |  |  |  |  |  |  |  | 500 µg/mL (≈ 1020 µM) | 250 µg/mL (≈ 510 µM) | 250 µg/mL (≈ 510 µM) | 500 µg/mL (≈ 1020 µM) | 500 µg/mL (≈ 1020 µM) | 78.2 µM | 500 µg/mL (≈ 1020 µM) | 250 µg/mL (≈ 510 µM)
N#Cc1c(-c2cccc(Cl)c2)cc(-c2nc3ccccc3[nH]2)nc1N1C(=O)C(Cl)C1c1ccccc1 (stereo not given) |  |  |  |  |  |  |  | 50 µg/mL (≈ 98 µM) | 50 µg/mL (≈ 98 µM) | 25 µg/mL (≈ 49 µM) | 25 µg/mL (≈ 49 µM) | 50 µg/mL (≈ 98 µM) | > 100 µM | 50 µg/mL (≈ 98 µM) | 25 µg/mL (≈ 49 µM)
Cc1ccc(-c2cc(-c3nc4ccccc4[nH]3)nc(N)c2C#N)cc1 | inactive | inactive | inactive | inactive | inactive | inactive | inactive |  |  |  |  |  |  |  | 
N#Cc1c(-c2cccc(O)c2)cc(-c2nc3ccccc3[nH]2)nc1N | inactive | inactive | inactive | inactive | inactive | inactive | inactive |  |  |  |  |  |  |  | 
N#Cc1c(-c2ccccc2O)cc(-c2nc3ccccc3[nH]2)nc1N1C(=O)C(Cl)C1c1ccccc1 (stereo not given) |  |  |  |  |  |  |  | 500 µg/mL (≈ 1020 µM) | 500 µg/mL (≈ 1020 µM) | 500 µg/mL (≈ 1020 µM) | 500 µg/mL (≈ 1020 µM) | 500 µg/mL (≈ 1020 µM) | 78 µM | 500 µg/mL (≈ 1020 µM) | 500 µg/mL (≈ 1020 µM)
N#Cc1c(-c2ccc(Cl)cc2)cc(-c2nc3ccccc3[nH]2)nc1N1C(=O)C(Cl)C1c1ccccc1 (stereo not given) |  |  |  |  |  |  |  | 100 µg/mL (≈ 196 µM) | 25 µg/mL (≈ 49 µM) | 12.5 µg/mL (≈ 24.5 µM) | 12.5 µg/mL (≈ 24.5 µM) | 100 µg/mL (≈ 196 µM) | > 100 µM | 12.5 µg/mL (≈ 24.5 µM) | 100 µg/mL (≈ 196 µM)
N#Cc1c(-c2ccc(Cl)cc2O)cc(-c2nc3ccccc3[nH]2)nc1N1C(=O)C(Cl)C1c1ccccc1 (stereo not given) |  |  |  |  |  |  |  | 250 µg/mL (≈ 475 µM) | 250 µg/mL (≈ 475 µM) | 100 µg/mL (≈ 190 µM) | 200 µg/mL (≈ 380 µM) | 250 µg/mL (≈ 475 µM) | 91.5 µM | 500 µg/mL (≈ 950 µM) | 250 µg/mL (≈ 475 µM)
N#Cc1c(-c2cccc([N+](=O)[O-])c2)cc(-c2nc3ccccc3[nH]2)nc1/N=C/c1ccccc1 |  | inactive |  | inactive |  |  | inactive |  | 1000 µg/mL (≈ 2250 µM) |  | 1000 µg/mL (≈ 2250 µM) |  |  |  | 
Cc1cccc(-c2cc(-c3nc4ccccc4[nH]3)nc(N)c2C#N)c1 | inactive | inactive | inactive | inactive | inactive | inactive | inactive |  |  |  |  |  |  |  | 
N#Cc1c(-c2ccccc2)cc(-c2nc3ccccc3[nH]2)nc1N1C(=O)C(Cl)C1c1ccccc1 (stereo not given) |  |  |  |  |  |  |  | 500 µg/mL (≈ 1050 µM) | 500 µg/mL (≈ 1050 µM) | 250 µg/mL (≈ 525 µM) | 500 µg/mL (≈ 1050 µM) | 500 µg/mL (≈ 1050 µM) | 81 µM | 250 µg/mL (≈ 525 µM) | 250 µg/mL (≈ 525 µM)
Cc1ccc(-c2cc(-c3nc4ccccc4[nH]3)nc(N3C(=O)C(Cl)C3c3ccccc3)c2C#N)cc1 (stereo not given) |  |  |  |  |  |  |  | 500 µg/mL (≈ 1020 µM) | 500 µg/mL (≈ 1020 µM) | 250 µg/mL (≈ 510 µM) | 500 µg/mL (≈ 1020 µM) | 500 µg/mL (≈ 1020 µM) | 74.5 µM | 100 µg/mL (≈ 204 µM) | 500 µg/mL (≈ 1020 µM)
N#Cc1c(-c2ccccc2O)cc(-c2nc3ccccc3[nH]2)nc1N | inactive | inactive | inactive | inactive | inactive | inactive | inactive |  |  |  |  |  |  |  | 
N#Cc1c(-c2cccc(O)c2)cc(-c2nc3ccccc3[nH]2)nc1N1C(=O)C(Cl)C1c1ccccc1 (stereo not given) |  |  |  |  |  |  |  | 250 µg/mL (≈ 508 µM) | 500 µg/mL (≈ 1020 µM) | 500 µg/mL (≈ 1020 µM) | 500 µg/mL (≈ 1020 µM) | 250 µg/mL (≈ 508 µM) | 86.5 µM | 500 µg/mL (≈ 1020 µM) | 500 µg/mL (≈ 1020 µM)
